Assay results as given in patent US20030055010A1, “Preserving active fungicide in an aqueous solution” (priority 1999, published 2003).

Test: Rest activity of natamycin over time in water based polymer dispersion mixtures (HPLC)
Format: physicochemical
Description: This example describes a method to prepare a formulation suitable for use as a food coating and which was developed to test the stability of natamycin over time in relation to the added base polymers.
The mixtures were made with an electric top stirrer, type RW 20 DZM, from Janke & Kunkel equipped with a rushton stirrer.
The mixtures were made by adding 500 gram Mowilith DM2KL, 1000 gram of the latex polymer, to be tested together with 4 gram Delvocid® and a protective additive.
The total weight was made up to 2000 gram with tap water.
This crude mixture was mixed for 5 minutes to obtain a homogeneous mixture and was then adjusted to pH 4-7 with ammonia.
The mixture was stored at 18° C. in a closed pot in the dark.
The prepared mixtures were measured over time for the amount of active natamycin using the test described in Example 2.
This Example describes the method that was used to analyze the amount of active natamycin in a water based mixture of several components.
The method was a HPLC analysis based on the International Dairy Federation (Provisional ADF Standard 140, 1987) with a Lichrosorb RP 8 column. Detection was by UV at 303 nm with a range of 0.1-4 mg/L with an injection volume of 20 μl.
Sample preparation was carried out by weighing 2 g prepared formulation with an accuracy of 1 mg in a measuring flask. 4 ml demineralized water (demiwater) was added and the mixture was stirred for […] a homogeneous suspension.
Subsequently 80 ml methanol was added and the mixture was stirred for 10 minutes. After ultrasonic treatment the solution was filled up to 100 ml with demiwater and the diluted and/or filtered (0.2 μm) before injecting.
The amount of active natamycin as ppm was calculated against a series of standards.
To test the stability of natamycin in combination with water based polymer dispersions mixtures, mixtures were made according to Example 1, and the rest activity of natamycin measured according to Example 2. The results are set out in table 1 (rest activity in %).

Question: For C[C@@H]1C/C=C/C=C/C=C/C=C/[C@H](O[C@@H]2O[C@H](C)[C@@H](O)[C@H](N)[C@@H]2O)C[C@@H]2O[C@](O)(C[C@@H](O)C[C@H]3O[C@@H]3/C=C/C(=O)O1)C[C@H](O)[C@H]2C(=O)O [natamycin], which “Rest activity of natamycin over time” value (Basepolymer 2, EDTA-disodiumsalt 0 ppm, 0 weeks) is on record?
Answer: 100%

Question: And the “Rest activity of natamycin over time” value (Basepolymer 2, EDTA-disodiumsalt 0 ppm, 1 week)?
Answer: 70%

Question: What about the “Rest activity of natamycin over time” value (Basepolymer 2, EDTA-disodiumsalt 0 ppm, 3 weeks) of the same compound?
Answer: 22%

Question: And the “Rest activity of natamycin over time” value (Basepolymer 2, EDTA-disodiumsalt 0 ppm, 5 weeks)?
Answer: 5%

Question: And the “Rest activity of natamycin over time” value (Basepolymer 2, EDTA-disodiumsalt 0 ppm, 7 weeks)?
Answer: 2%

Question: And the “Rest activity of natamycin over time” value (Basepolymer 2, EDTA-disodiumsalt 100 ppm, 0 weeks)?
Answer: 100%

Question: What about the “Rest activity of natamycin over time” value (Basepolymer 2, EDTA-disodiumsalt 100 ppm, 1 week) of the same compound?
Answer: 99%

Question: What about the “Rest activity of natamycin over time” value (Basepolymer 2, EDTA-disodiumsalt 100 ppm, 3 weeks) of the same compound?
Answer: 98%

Question: And the “Rest activity of natamycin over time” value (Basepolymer 2, EDTA-disodiumsalt 100 ppm, 5 weeks)?
Answer: 88%

Question: And the “Rest activity of natamycin over time” value (Basepolymer 2, EDTA-disodiumsalt 100 ppm, 7 weeks)?
Answer: 82%

Question: What about the “Rest activity of natamycin over time” value (Basepolymer 2, EDTA-disodiumsalt 250 ppm, 0 weeks) of the same compound?
Answer: 100%

Question: What about the “Rest activity of natamycin over time” value (Basepolymer 2, EDTA-disodiumsalt 250 ppm, 1 week) of the same compound?
Answer: 97%

Question: What about the “Rest activity of natamycin over time” value (Basepolymer 2, EDTA-disodiumsalt 250 ppm, 3 weeks) of the same compound?
Answer: 95%

Question: And the “Rest activity of natamycin over time” value (Basepolymer 2, EDTA-disodiumsalt 250 ppm, 5 weeks)?
Answer: 88%

Question: What about the “Rest activity of natamycin over time” value (Basepolymer 2, EDTA-disodiumsalt 250 ppm, 7 weeks) of the same compound?
Answer: 85%

Question: What about the “Rest activity of natamycin over time” value (Basepolymer 2, EDTA-disodiumsalt 500 ppm, 0 weeks) of the same compound?
Answer: 100%

Question: What about the “Rest activity of natamycin over time” value (Basepolymer 2, EDTA-disodiumsalt 500 ppm, 1 week) of the same compound?
Answer: 95%

Question: What about the “Rest activity of natamycin over time” value (Basepolymer 2, EDTA-disodiumsalt 500 ppm, 3 weeks) of the same compound?
Answer: 92%

Question: And the “Rest activity of natamycin over time” value (Basepolymer 2, EDTA-disodiumsalt 500 ppm, 5 weeks)?
Answer: 86%

Question: What about the “Rest activity of natamycin over time” value (Basepolymer 2, EDTA-disodiumsalt 500 ppm, 7 weeks) of the same compound?
Answer: 80%

Question: And the “Rest activity of natamycin over time” value (Basepolymer 2, EDTA-disodiumsalt 750 ppm, 0 weeks)?
Answer: 100%

Question: And the “Rest activity of natamycin over time” value (Basepolymer 2, EDTA-disodiumsalt 750 ppm, 1 week)?
Answer: 96%

Question: And the “Rest activity of natamycin over time” value (Basepolymer 2, EDTA-disodiumsalt 750 ppm, 3 weeks)?
Answer: 95%

Question: And the “Rest activity of natamycin over time” value (Basepolymer 2, EDTA-disodiumsalt 750 ppm, 5 weeks)?
Answer: 88%

Question: And the “Rest activity of natamycin over time” value (Basepolymer 2, EDTA-disodiumsalt 750 ppm, 7 weeks)?
Answer: 82%

Question: And the “Rest activity of natamycin over time” value (Basepolymer 2, EDTA-disodiumsalt 1000 ppm, 0 weeks)?
Answer: 100%

Question: And the “Rest activity of natamycin over time” value (Basepolymer 2, EDTA-disodiumsalt 1000 ppm, 1 week)?
Answer: 96%

Question: What about the “Rest activity of natamycin over time” value (Basepolymer 2, EDTA-disodiumsalt 1000 ppm, 3 weeks) of the same compound?
Answer: 95%

Question: What about the “Rest activity of natamycin over time” value (Basepolymer 2, EDTA-disodiumsalt 1000 ppm, 5 weeks) of the same compound?
Answer: 88%

Question: What about the “Rest activity of natamycin over time” value (Basepolymer 2, EDTA-disodiumsalt 1000 ppm, 7 weeks) of the same compound?
Answer: 81%

Question: What about the “Rest activity of natamycin over time” value (Basepolymer 2, EDTA-disodiumsalt 2000 ppm, 0 weeks) of the same compound?
Answer: 100%

Question: What about the “Rest activity of natamycin over time” value (Basepolymer 2, EDTA-disodiumsalt 2000 ppm, 1 week) of the same compound?
Answer: 97%

Question: What about the “Rest activity of natamycin over time” value (Basepolymer 2, EDTA-disodiumsalt 2000 ppm, 3 weeks) of the same compound?
Answer: 94%

Question: What about the “Rest activity of natamycin over time” value (Basepolymer 2, EDTA-disodiumsalt 2000 ppm, 5 weeks) of the same compound?
Answer: 88%

Question: What about the “Rest activity of natamycin over time” value (Basepolymer 2, EDTA-disodiumsalt 2000 ppm, 7 weeks) of the same compound?
Answer: 79%

Question: What about the “Rest activity of natamycin over time” value (Basepolymer 2, EDTA-disodiumsalt 5000 ppm, 0 weeks) of the same compound?
Answer: 100%

Question: And the “Rest activity of natamycin over time” value (Basepolymer 2, EDTA-disodiumsalt 5000 ppm, 1 week)?
Answer: 97%

Question: What about the “Rest activity of natamycin over time” value (Basepolymer 2, EDTA-disodiumsalt 5000 ppm, 3 weeks) of the same compound?
Answer: 95%

Question: What about the “Rest activity of natamycin over time” value (Basepolymer 2, EDTA-disodiumsalt 5000 ppm, 5 weeks) of the same compound?
Answer: 88%

Question: And the “Rest activity of natamycin over time” value (Basepolymer 2, EDTA-disodiumsalt 5000 ppm, 7 weeks)?
Answer: 81%

Question: What about the “Rest activity of natamycin over time” value (basepolymer 3, With BHA 1000 ppm, 1 week) of the same compound?
Answer: 96%

Question: What about the “Rest activity of natamycin over time” value (basepolymer 3, With BHA 1000 ppm, 2 weeks) of the same compound?
Answer: 92%

Question: What about the “Rest activity of natamycin over time” value (basepolymer 3, With BHA 1000 ppm, 4 weeks) of the same compound?
Answer: 84%

Question: What about the “Rest activity of natamycin over time” value (basepolymer 3, With tocopherol 1000 ppm, 1 week) of the same compound?
Answer: 92%

Question: What about the “Rest activity of natamycin over time” value (basepolymer 3, With tocopherol 1000 ppm, 2 weeks) of the same compound?
Answer: 83%

Question: What about the “Rest activity of natamycin over time” value (basepolymer 3, With tocopherol 1000 ppm, 4 weeks) of the same compound?
Answer: 76%

Question: What about the “Rest activity of natamycin over time” value (basepolymer 3, Without additive, 1 week) of the same compound?
Answer: 88%

Question: What about the “Rest activity of natamycin over time” value (basepolymer 3, Without additive, 2 weeks) of the same compound?
Answer: 70%

Question: What about the “Rest activity of natamycin over time” value (basepolymer 3, Without additive, 4 weeks) of the same compound?
Answer: 50%
